# Source: patent US9649324B2, “Use of tylvalosin as antiviral agent” (ECO ANIMAL HEALTH LIMITED, priority 2006, dated 2017)
# Assays:
# PRRSV [1] = test: Inhibitors of PRRSV infection added at various times pre and post infection (Example 7); type: cell-based; settings: for PRRSV spread / initial PRRSV infection (initial site of infection): added 2 or 4 hours after infection
# [2] = in vivo; cited from earlier work
# [3] = system: equine arteritis virus (EAV); test: Effect on equine arteritis virus infection (Example 6); type: cell-based
# Method: Experiments were carried out to determine whether tylvalosin has an effect on equine arteritis virus (EAV).
# HRT-18 cells = test: Intracellular accumulation of macrolides in HRT-18 cells; type: in vitro ADME, human; settings: for intracellular:extracellular ratio: human, 10 μg/mL
# Method: HRT-18 cells, in 6 cm tissue cultures dishes, were incubated in the presence of 0.5, 5 or 50 μg/mL tylvalosin. After 4 h, two dishes for each tylvalosin concentration and two dishes without antibiotic were removed from the incubator. A sample of medium (about 1 mL) was removed, placed in a labelled Eppendorf tube and stored at −20° C. The rest of the medium was then removed. Each of the cell monolayers was washed twice in PBS, using approximately 5 mL for each wash. The plunger from a 2 mL plastic syringe was used to gently scrape off the cells. PBS (500 μL) was added to the dish and the cells gently removed into this medium, using a micropipette. The sample was then placed in an Eppendorf tube and centrifuged at 8000×g in a bench centrifuge (Biofuge pico, Heraeus instruments) for 13 sec. An obvious cell pellet formed. The supernatant was removed using a micropipette and the cell material was stored at −20° C. in a labelled Eppendorf tube. After approximately 24 h the remaining tissue culture dishes were removed from the incubator and treated as described above for the 4 h samples. All the samples, including the 4 h samples, were then stored at −70° C.
# HRT-18 cells were prepared as described above and used at passage 42. Stock solutions of antibiotics (either tylvalosin, tylosin or tilmicosin) were diluted in growth media and 10 μg/mL each antibiotic was added to the confluent cell monolayers. The cells were incubated at 37° C. in a 5% CO2 atmosphere for either 4 h or 24 h. The media and cells were harvested and tested for antibiotic, as described above.
# (§1) All the supernatant and cell samples were transported frozen (at approximately −20° C.) to York Bioanalytical Solutions (York, England) for analysis. Briefly, 0.25 g of buffer (RPMI medium containing 10% FCS) was weighed into a polypropylene tube. A 50 μL volume of the appropriate working solution was added to the quality control (QC) samples. Methanol (50 μL) was added to each blank sample used for preparation of calibration standards, recovery samples and reagent blanks. A 2.5 mL volume of 0.1 M phosphate buffer was added to each sample, vortex mixed for approximately 1 min and then centrifuged at 3220×g for 10 min at 4° C.
# (§2) For the liquid-liquid clean-up phase, an aliquot (100 μL) of the supernatant was transferred to a polypropylene tube. The pH was adjusted to pH 8-8.5 by the addition of 0.1 M NaOH, and vortex mixed. Ethyl acetate (5 mL) was added and after capping, the whole mixture was shaken for 10 min and then centrifuged at 3220×g for 10 min at 4° C.
# (§3) Ammonium acetate (20 mM; pH native)—formic acid, 1000:3, v/v (100 μL) was added to each well in a 2 mL polypropylene collection plate. An aliquot of the ethyl acetate mixture (100 μL) was transferred to the polypropylene collection plate and evaporated under nitrogen (40° C.) until the ethyl acetate was fully evaporated whilst the ammonium acetate remained. Methanol (100 μL) was added to each well, excluding the calibration standards.
# (§4) To each well containing a calibration standard, 100 μL of the appropriate calibration working solution was added. Samples were then vortex mixed for at least 10 min and submitted for liquid chromatography with tandem mass spectrometric analysis. The method stated was applicable to the samples of media (and the calibration standards and quality control samples).
# (§5) For the cells, the sample tubes were weighed, and 100 μL of acetonitrile was added. The samples were vortex mixed for 10 sec, then centrifuged at 10285×g at 4° C. for 5 min. The sample was transferred to a polypropylene tube. The original sample tube was washed with 0.1 M phosphate buffer (1 mL). This was transferred to the polypropylene tube. A second wash of 1 mL was made, then a final wash of 0.5 mL. The polypropylene tube was now at the same stage as the end of the liquid extraction, but with the cells present rather than media. This was then taken through the sample preparation as described above. […]
# PRRSV [4] = system: PRRSV
# EAV = test: Sensitivity to chloroquine (Example 8), EAV
# Caco-2 cells = test: Intracellular accumulation and trans-epithelial transport in polarised Caco-2 cells; type: in vitro ADME, human; settings: human, Caco-2, 240 min, 10 μg/mL
# Method: Caco-2 cells were seeded at a density of 0.8×10^6 cells per well of a Transwell Clear filter 6 well plate, 0.4 μm pore size. The cells were incubated with 2 mL medium in both apical and basolateral chambers. This medium was replaced every 2 days for 10-14 days. Transepithelial resistance was measured using Millicell ERS apparatus (Millipore) at day 7, 10 and/or 14 in order to identify when the cells had become polarised. Readings of >1000 Ω were indicative of polarised cells. […]
# as §1, §2, §3, §4
# (§6) For the cells, the sample tubes were weighed, and 100 μL of acetonitrile was added. The samples were vortex mixed for 10 sec, then centrifuged at 10285×g at 4° C. for 5 min. The sample was transferred to a polypropylene tube. The original sample tube was washed with 0.1 M phosphate buffer (1 mL). This was transferred to the polypropylene tube. A second wash of 1 mL was made, then a final wash of 0.5 mL. The polypropylene tube was now at the same stage as the end of the liquid extraction, but with the cells present rather than media. This was then taken through the sample preparation as described above. The original sample tubes were allowed to dry (i.e. any remaining solvent evaporated off) and were then reweighed to determine the weight of cells in the sample, to allow the concentration per gram of cells to be determined.
# LLC-PK1 cells = test: Intracellular accumulation in pig kidney epithelial cells; type: in vitro ADME; settings: pig, 75 min, 10 μg/mL
# Method: LLC-PKI cells in 6 cm^2 plastic tissue culture dishes were incubated with 10 μg/mL of the different macrolides. Cells and medium were harvested as described above at 30, 75 and 120 min.
# as §1, §2, §3, §4, §6
# [5] = system: chicken white blood cells; test: Intracellular accumulation in chicken white blood cells; type: in vitro ADME; design: intracellular:extracellular ratio, variation during the experimental time period: dose or concentration left out as unconfirmed; settings: chicken
# Method: Pig blood was collected in Heparin-coated BD vacutainers (6). 20 mL of blood and 30 mL of phosphate buffered saline (PBS) were mixed in a 50 mL conical centrifuge tube. This was repeated in order to obtain 3 such tubes. The mixtures were centrifuged for 10 min at 2050×g. The white blood cells, together with some red blood cells below, were harvested into a 50 mL conical centrifuge tube. PBS was added to about 50 mL. A 63% solution of Percoll was made as follows: 6.3 mL Percoll (Sigma), 1.0 mL 1.5 M NaCl, 2.7 mL H2O. 10 mL of 63% Percoll was added to each of two 50 mL conical centrifuge tubes. 25 mL of the resuspended white blood cells were carefully layered on top of the each of the Percoll solutions. A sharp interface was produced. The material was centrifuged at 3000×g for 10 min. […] The white blood cells were harvested in PBS (50 mL) and centrifuged at 500×g for 10 min. The cell pellet was resuspended in medium (Glasgow minimum essential medium containing penicillin and streptomycin). A viable cell count was made using trypan blue. The same method used for isolation of pig WBCs was used for the chicken WBCs, with the exception that heparin (100 I.U./mL) was prepared and mixed with an equal volume of chicken whole blood.
# All tubes were placed on a rotary mixing machine, at 37° C. Supernatant and cell samples were harvested at the times described in the figure legends. Duplicate samples were used for each antibiotic for each time point.
# as §1, §2, §3, §4, §5
# endosomal pH = test: Acridine orange assay of endosomal pH (Example 13); type: cell-based; settings: acridine orange stained endosomes, any cell line
# Method: Acridine orange is a dye that causes cells to fluoresce green with the exception of acidic compartments (such as endosomes) that appear red—due to the protonation of the dye and quenching of the green fluorescence. A substance that raises the endosomal pH will prevent the appearance of the red fluorescence. The effect of Aivlosin® and other macrolide antibiotics on a the staining of endosomes by acridine orange in number of cells lines was determined (see FIG. 19). An area of cells grown on a glass coverslip is first selected using a DAPI stain. […] This selection procedure helps reduce any bias in the results. The green and red filters on the epifluorescence microscope were then used to examine about 20 cells. The number of red spots (endosome vesicles) in was determined. The average number of Acridine orange stained endosomes was counted.
# PRRSV [6] = test: Effect of macrolides on PRRSV (background statement)
# [7] = system: VR2332 (US strain of PRRSV); test: VR2332 (US strain of PRRSV) entry assay in MA104 cells (Example 10); settings: 4 h pretreatment, moi 10, overnight
smiles,measurement,setting,value
CN(C)CCCN1c2ccccc2Sc2ccc(Cl)cc21 [chlorpromazine],PRRSV spread,PRRSV [1],appeared to prevent spread
same,initial PRRSV infection (initial site of infection),PRRSV [1],showed the initial site of infection
same,initial PRRSV infection,PRRSV [1]; added 4 hours before infection,inhibited
same,initial PRRSV infection,PRRSV [1]; added at the time of infection,inhibited
CC[C@H]1OC(=O)[C@H](C)[C@@H](O[C@H]2C[C@@](C)(OC)[C@@H](O)[C@H](C)O2)[C@H](C)[C@@H](O[C@@H]2O[C@H](C)C[C@H](N(C)C)[C@H]2O)[C@](C)(O)C[C@@H](C)CN(C)[C@H](C)[C@@H](O)[C@]1(C)O [azithromycin],"transintestinal elimination, share of the total administered dose",[2],30-35%
COC(=O)Nc1nc2ccc(C(=O)c3cccs3)cc2[nH]1 [nocodazole],EAV infection,[3],not blocked
same,initial PRRSV infection (initial site of infection),PRRSV [1],no effect
same,initial PRRSV infection,PRRSV [1]; added 4 hours before infection,inhibited
same,initial PRRSV infection,PRRSV [1]; added at the time of infection,did not inhibit
"CC[C@H]1OC(=O)C[C@@H](OC(C)=O)[C@H](C)[C@@H](O[C@@H]2O[C@H](C)[C@@H](O[C@H]3C[C@@](C)(O)[C@@H](O)[C@H](C)O3)[C@H](N(C)C)[C@H]2O)[C@@H](CC=O)C[C@@H](C)C(=O)/C=C/C(C)=C/C1CO[C@@H]1O[C@H](C)[C@@H](O)[C@@H](OC)[C@H]1OC (stereo partly drawn) [3-acetyltylosin, 3-O-Acetyltylosin]",uptake and accumulation in cells,HRT-18 cells,behave in the same way
C=C1[C@@H](C)[C@H]2[C@H](Cc3ccccc3)NC(=O)[C@]23[C@H](OC(C)=O)/C=C/[C@@](C)(O)C(=O)[C@@H](C)C/C=C/[C@H]3[C@@H]1O [cytochalasin D],PRRSV spread,PRRSV [1],no spread could be detected
same,initial PRRSV infection (initial site of infection),PRRSV [1],no effect
same,initial PRRSV infection,PRRSV [1]; added 4 hours before infection,inhibited
same,initial PRRSV infection,PRRSV [1]; added at the time of infection,inhibited
CCN(CC)CCCC(C)Nc1ccnc2cc(Cl)ccc12 (stereo not drawn) [chloroquine],PRRSV spread,PRRSV [1],no effect
same,initial PRRSV infection (initial site of infection),PRRSV [1],no effect
same,initial PRRSV infection,PRRSV [1]; added 4 hours before infection,inhibited
same,initial PRRSV infection,PRRSV [1]; added at the time of infection,inhibited
same,concentration required to inhibit infection,PRRSV [4],less than 5 μM
same,concentration required to inhibit infection,FCV,≥ 200 µM
same,concentration required to inhibit infection,EAV,≥ 50 µM
CC[C@H]1OC(=O)[C@H](C)[C@@H](O[C@H]2C[C@@](C)(OC)[C@@H](O)[C@H](C)O2)[C@H](C)[C@@H](O[C@@H]2O[C@H](C)C[C@H](N(C)C)[C@H]2O)[C@](C)(OC)C[C@@H](C)C(=O)[C@H](C)[C@@H](O)[C@]1(C)O [clarithromycin],"transintestinal elimination, share of the total administered dose",[2],about 10%
CC[C@H]1OC(=O)C[C@@H](O)[C@H](C)[C@@H](O[C@@H]2O[C@H](C)[C@@H](O[C@H]3C[C@@](C)(O)[C@@H](O)[C@H](C)O3)[C@H](N(C)C)[C@H]2O)[C@@H](CC=O)C[C@@H](C)C(=O)/C=C/C(C)=C/[C@@H]1CO[C@@H]1O[C@H](C)[C@@H](O)[C@@H](OC)[C@H]1OC [tylosin],intracellular:extracellular ratio,HRT-18 cells; 4 h,less than 1 fold
same,intracellular:extracellular ratio,HRT-18 cells; 24 h,less than 1 fold
same,average intracellular concentration,Caco-2 cells,1.86 μg/mg cells
same,basolateral chamber content as average % of the apical chamber value,Caco-2 cells,0.52%
same,average intracellular concentration,LLC-PK1 cells,2.41 μg/mg cells
same,"intracellular:extracellular ratio, variation during the experimental time period",[5],2.65-4.7 fold
same,average intracellular concentration,"[5]; 15 min, 10 μg/mL",10.1 μg/mg cells
same,intracellular concentration,"[5]; 60 min, 10 μg/mL",32.1 μg/mg cells
same,effect on raising the pH in the endosomes,endosomal pH,did not have much effect
same,effect on PRRSV,PRRSV [6],no effect
same,inhibition of VR2332 infection,[7],not
